Experimental data published in patent US6967196B1, “Sulfonamide compounds and uses thereof” (Bristol-Myers Squibb Company, priority 1999, dated 2005).
Like-named read-outs stand apart in the source and are kept apart here.

Tested on: amyloid β production in transfected H4 (human neuroglioma) cells stably expressing APP constructs
Assay: In vitro cell-based assay of inhibitors of amyloid β production (ELISA)
Details: transfected H4 cells stably expressing APP, amyloid β in medium by ELISA, read-out: ACTIVITY (IC50, inhibition of amyloid β production)
Procedure, shortened: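 Plate wt/variant APP cells; ≥6 h later swap to medium + compound (10-100 μM screen); incubate ~16 h; sample medium; Aβ ELISA with C-terminal capture / N-terminal detection Abs; quantify vs Aβ standard curve.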

[1] = approximately 16 hours incubation

Substance	IC50 (approx. 16 h incubation) [nM]	IC50 [1] [nM]
N-{3-[2-(1-{[(4-chlorophenyl)sulfonyl]-2,5-difluoroanilino}ethyl)phenoxy]propyl}-N-methyl-1-naphthamide [Example 966]		> 500
N-{3-[2-(1-{[(4-chlorophenyl)sulfonyl]-2,5-difluoroanilino}ethyl)phenoxy]propyl}-N-methyl-2,5-bis(trifluoromethyl)benzamide [Example 892]		> 500
N-{3-[2-(1-{[(4-chlorophenyl)sulfonyl]-2,5-difluoroanilino}ethyl)phenoxy]propyl}-N-methyl-2-naphthamide [Example 858]		100 to 500
N-{3-[2-(1-{[(4-chlorophenyl)sulfonyl]-2,5-difluoroanilino}ethyl)phenoxy]propyl}-N-methyl-3-(trifluoromethyl)benzamide [Example 657]	100 to 500	
N-{3-[2-(1-{[(4-chlorophenyl)sulfonyl]-2,5-difluoroanilino}ethyl)phenoxy]propyl}-N-methyl-3-nitrobenzamide [Example 737]	100 to 500	
N-{3-[2-(1-{[(4-chlorophenyl)sulfonyl]-2,5-difluoroanilino}ethyl)phenoxy]propyl}-N-methyl-4-(trifluoromethoxy)benzamide [Example 770]	100 to 500	
N-{3-[2-(1-{[(4-chlorophenyl)sulfonyl]-2,5-difluoroanilino}ethyl)phenoxy]propyl}-N-methyl-4-propylbenzamide [Example 656]	100 to 500	
N-{3-[2-(1-{[(4-chlorophenyl)sulfonyl]-2,5-difluoroanilino}methyl)phenoxy]propyl}-2-fluoro-N-methylbenzamide [Example 733]	100 to 500	
N-{3-[2-(1-{[(4-chlorophenyl)sulfonyl]-2,5-difluoroanilino}methyl)phenoxy]propyl}-N-methyl-2-phenylcyclopropanecarboxamide [Example 759]	100 to 500	
N-{3-[2-({[(4-chlorophenyl)sulfonyl]-2,5-difluoroanilino}ethyl)phenoxy]propyl}-3,4,5-trimethoxy-N-methylbenzamide [Example 913]		> 500
N-{3-[2-({[(4-chlorophenyl)sulfonyl]-2,5-difluoroanilino}methyl)phenoxy]propyl}-2,3,4-trifluoro-N-methylbenzamide [Example 864]		100 to 500
N-{3-[2-({[(4-chlorophenyl)sulfonyl]-2,5-difluoroanilino}methyl)phenoxy]propyl}-2,4-dimethoxy-N-methylbenzamide [Example 834]		100 to 500

Second part, the substance after the results:

IC50 (approx. 16 h incubation) [nM]	IC50 [1] [nM]	Substance
100 to 500		N-{3-[2-(1-{[(4-chlorophenyl)sulfonyl]-2,5-difluoroanilino}ethyl)phenoxy]propyl}-N,4-dimethylbenzamide [Example 741]
100 to 500		N-{3-[2-(1-{[(4-chlorophenyl)sulfonyl]-2,5-difluoroanilino}ethyl)phenoxy]propyl}-N-methyl-1-naphthalenesulfonamide [Example 776]
100 to 500		N-{3-[2-(1-{[(4-chlorophenyl)sulfonyl]-2,5-difluoroanilino}ethyl)phenoxy]propyl}-N-methyl-2-naphthalenesulfonamide [Example 671]
	> 500	N-{3-[2-(1-{[(4-chlorophenyl)sulfonyl]-2,5-difluoroanilino}ethyl)phenoxy]propyl}-N-methyl-3,5-bis(trifluoromethyl)benzamide [Example 934]
100 to 500		N-{3-[2-(1-{[(4-chlorophenyl)sulfonyl]-2,5-difluoroanilino}ethyl)phenoxy]propyl}-N-methyl-4-(trifluoromethyl)benzamide [Example 703]
100 to 500		N-{3-[2-({[(4-chlorophenyl)sulfonyl]-2,5-difluoroanilino}methyl)phenoxy]propyl}-2,3-difluoro-N-methylbenzamide [Example 665]
	100 to 500	N-{3-[2-({[(4-chlorophenyl)sulfonyl]-2,5-difluoroanilino}methyl)phenoxy]propyl}-2,4,5-trifluoro-N-methylbenzamide [Example 813]
